Tests used:
[1] = Cytotoxicity against rat C6 cells assessed as cell viability at 20 uM incubated for 24 hrs by MTT assay relative to control; type: cell-based; conditions: read-out: Activity
C6 = assay: Neuroprotective activity in rat C6 cells assessed as NGF secretion at 20 uM incubated for 24 hrs by ELISA relative to control; type: functional
BV-2 = assay: Antineuroinflammatory activity against mouse BV2 cells assessed as inhibition in LPS-induced NO production preincubated for 30 mins followed b LPS addition and measured after 24 hr by griess reagent based assay; type: functional, cell-based

IC50 (BV-2)	Compound	viability at 24 h, 20 µM [1]	Activity (C6)
–	O=C1C2CCCN2C(=S)N1Cc1ccccc1 (stereo not drawn)	109%	105.88%
32.6 µM	NC(=O)NCCc1ccccc1	107%	105.82%
–	C=CCN1C(=O)[C@]2(O)CCCN2C1=S	106%	93.41%
–	O=C1N(CCc2ccccc2)C(=S)N2CCC[C@@]12O	112%	75.08%
–	C=CCN1C(=O)N2CCC[C@@]2(O)C1=O	97.3%	110.66%
–	O=C1[C@@H]2CCCN2C(=O)N1CCc1ccccc1	111%	111.26%
–	C=CCN1C(=O)[C@@]2(O)CCCN2C1=S	114%	153.59%
–	CSC1=NC[C@]2(S1)C(=O)Nc1ccccc12	88.2%	96.3%
–	O=C1N(CCc2ccccc2)C(=O)[C@]2(O)CCCN12	91.2%	98.7%
–	O=C1N(CCc2ccccc2)C(=O)[C@@]2(O)CCCN12	106%	115.13%
–	O=C1N(CCc2ccccc2)C(=S)N2CCC[C@]12O	108%	100.68%
–	C=CCN1C(=O)N2CCC[C@]2(O)C1=O	100%	141.99%
–	CCCCC/C=C/C(=O)CCc1ccc(O)c(OC)c1 [SHOGAOL]	111%	140.69%
21.9 µM	CNC(=N)NCCC[C@H](N)C(=O)O [TILARGININE]	–	–

Reference: ChEMBL document CHEMBL4414621, “Thiohydantoin and Hydantoin Derivatives from the Roots of Armoracia rusticana and Their Neurotrophic and Anti-neuroinflammatory Activities” (J Nat Prod, 2019)
